Molecules are shown by their SMILES. Values after ≈ are worked out from the molar mass of the structure shown. “Also recorded” adds a separate entry of the source.

The values below come from patent publication US8349368B2, “Compositions and methods for treating vaginal infections and pathogenic vaginal biofilms” (priority 2007, dated 2013).

The subject of one data set is recurrent BV. How it is done:
A retrospective case review was conducted of the use of boric acid in a series of patients with recurrent BV. Boric acid was employed as an antimicrobial agent as part of a 6-month sequential treatment protocol.
With the exception of boric acid, all of the other antimicrobials used were FDA approved for BV. The 6-month protocol was as follows: • 1. Induction: oral metronidazole or tinidazole twice daily for 7-10 days • 2. Boric acid treatment: 600-mg gelatin capsule inserted vaginally daily for 21 days • 3.

Data set [1] deals with clinical isolates of C. albicans as well as non-albicans species. The following applies: literature (Shubair 1990; Prutting 1998); cited from earlier work.
Data set [2] has as its system common bacterial pathogens. The following applies: literature (Meers 1990); cited from earlier work.
Another data set has as its system C. albicans. The data set is described as follows: planktonic MIC, standard MIC methodologies. The following applies: Candida albicans, read-out: planktonic MIC.
A further data set deals with G. vaginalis. The data set is described as follows: planktonic MIC, standard MIC methodologies. It is filed as cell-based, G. vaginalis ATCC #14018. The following applies: Gardnerella vaginalis. How it is done:
(§1) As a prelude to the biofilm experiments, the planktonic (i.e., free-floating vs. biofilm-associated) MIC values for boric acid and EDTA against both test organisms were established utilizing standard MIC methodologies. In contrast to C. albicans, the planktonic MIC values for boric acid and EDTA against G. vaginalis had not previously been reported.
(§2) In preparation of the biofilm experiments relating to the invention, overnight cultures of C. albicans and G. vaginalis were prepared by adding 1 mL frozen stock to 9 mL growth media (either G. vaginalis ATCC #14018 in 50% BHI broth+1% starch, or C. albicans ATCC #96113 in 50% SD broth+1% sucrose) and incubated for 24 hours at 37° C., C. albicans was grown under atmospheric conditions while G. vaginalis was grown with the addition of 5% CO2.
(§3) Next, the 24 biofilm-covered coupons were aseptically removed from the CDC reactor and placed in a 24-well plate, with each well containing 2 mL of test solution. The test solutions were run in triplicate and included varied concentrations of boric acid (BA) and EDTA or a combination thereof. […] Fluconazole at a concentration of 8 μg/mL was selected as the treatment control for C. albicans.

A further data set concerns G. vaginalis isolates. The following applies: conventional planktonic MIC testing; cited from earlier work.
Another data set concerns BV biofilm. The following applies: oral 500 mg twice daily for 7 days, cited from earlier work.
The subject of a further data set is G. vaginalis biofilm. The data set is described as follows: biofilm disruption in CDC biofilm reactor. It is filed as cell-based, G. vaginalis ATCC #14018. The following applies: metronidazole 192 μg/mL, 24-hour treatment. The method, then: as §1, §2, §3
For data set [3] the following is noted: including vaginal secretions and tissues; oral dosing, maximum daily dose 400 mg; cited from earlier work.

For the molecule `OB(O)O` [boric acid], in the data set on recurrent BV (600-mg vaginal capsule daily for 21 days), the “treatment failures during boric acid therapy” value is “none of the treatment failures occurred during boric acid therapy”. In the data set on recurrent BV (at 9 months (3 months after maintenance)), the patients remaining cured entry is given as “Sixty-seven”. In the data set on recurrent BV (end of 6 months, nitroimidazole induction, boric acid 600 mg vaginally daily 21 days, metronidazole gel maintenance, 24/31), the “patients clinically cured (asymptomatic and negative for Amsel's criteria)” value was 77%. In addition, in the data set with recurrent BV (in vivo), the “secondary yeast infection or discontinuation because of adverse event or intolerance” value is given as “none of the patients experienced a secondary yeast infection or discontinued”. Also, the “median duration of remission” value in the data set on recurrent BV (retrospective case series) is recorded as 8.7 months. The “antifungal activity in vitro” value in data set [1] is “weakly fungistatic”. Moreover, the “antibacterial activity in vitro” value in data set [2] is “bacteriostatic activity”. The MIC (usually the lowest concentration found to suppress growth) worked out at 1560 µg/mL (≈ 25.2 mM) in the data set on C. albicans and 3120 µg/mL in the data set with G. vaginalis.

Consider `Cc1ncc([N+](=O)[O-])n1CCO` [metronidazole], for which, in the data set with G. vaginalis isolates, the “susceptibility of G. vaginalis isolates” value was “good susceptibility”. In the data set on BV biofilm (G. vaginalis and Atopobium), the “vaginal biopsy result (fluorescent in situ hybridization)” value is recorded as “persistent accumulation of core pathogenic bacteria”. For the same molecule, the “clinical response by standard clinical and microbiologic methods” value in the data set on BV biofilm (each time point) is listed as “resolution of BV”. The “effect of active control on G. vaginalis biofilm” value in the data set on G. vaginalis biofilm is “little impact; also recorded: minimal impact”. For the same molecule, the MIC in the data set with G. vaginalis was determined as 128 µg/mL.

`OC(Cn1cncn1)(Cn1cncn1)c1ccc(F)cc1F` [fluconazole, Fluconazole]: the “drug levels achieved in biologic fluids and tissues” value in data set [3] is given as 4.12-8.08 μg/mL.

Regarding `O=C(O)CN(CCN(CC(=O)O)CC(=O)O)CC(=O)O` [EDTA, ethylene-diamine-tetra-acetic acid], the MIC came out at 780 µg/mL (≈ 2.67 mM) with C. albicans and 190 µg/mL with G. vaginalis.
